Data taken from US20090123373A1, “AMYLOID-IMAGING AGENTS” (priority 2007, published 2009).
One block for each compound: values may come before it.

Columns and labels:
[1] = target: β-amyloid (AD brain homogenates) (Homo sapiens, UniProt P05067); assay: Competitive binding assay with [3H]PIB in AD brain homogenates
Procedure: Binding was assayed in 12×75 mm borosilicate glass tubes. […] The resulting mixture was incubated at 37° C. for 1 h, and the bound and free radioligands were separated by rapid vacuum filtration through Whatman GF/B glass filter paper using a Brandel M-24R cell harvest and rapidly washed three times at room temperature with PBS. The filters containing the bound radioactivity were transferred to special vials containing 3 ml of universal scintillation fluid. Vials were counted using Beckman LS6500 multi-purpose scintillation counter. Specific binding was estimated as the difference between total and nonspecific binding. Under the assay conditions, the specifically bound fraction was less than 15% of the total radioactivity. The results were subjected to nonlinear regression analysis using software GraphPad Prism by which Kd and Ki values were calculated.
The postmortem brain tissues were obtained from well-defined AD patients. The gray matter was then carefully separated from white matter at autopsy and kept in −70° C. The fresh frozen gray matter was then homogenized by milling it thoroughly in a mortar in the presence of liquid nitrogen. The homogenates were then prepared in phosphate-buffered saline (PBS, pH 7.4) at a concentration of approximately 400 mg tissue/ml, aliquoted into 1-ml portions, and stored
According to the in vitro binding assays, functional groups have moderate effects on the binding affinity. […] In addition, methylation of the amino group increased the binding affinity.

[2] = Partition coefficient determination (n-octanol/PBS); assay type: physicochemical; conditions: n-octanol / PBS 0.1 M pH 7.4, room temperature, triplicate
Procedure: Partition coefficients were measured by mixing [^125I] 18 (10 μl, RCP>98%, approximately 50,0000 cpm) with sodium phosphate buffer (PBS, 3 g, 0.1 M, pH 7.4) and
n-octanol (3 g, 3.65 ml) in test tubes. The tubes were vortexed for 3 min (1 min 3×) at room temperature followed by centrifugation at 3500 rpm for 5 min. Then 1 ml of buffer and 1 ml of n-octanol were taken out, weighed, and counted. The partition coefficient was determined by calculating the ratio of cpm/g of n-octanol to that of PBS and expressed as logP oct=log [cpm/g (n-octanol)/cpm/g(PBS)]. Another 2 ml from the rest of n-octanol layer was taken out and repartitioned in a tube previously containing 3 g PBS and 1.65 ml of n-octanol until consistent partitions of the coefficient values were obtained. All assays were performed in triplicate.
Based on the conventional octanol-water partition measurement, the lipophilicity of [^125I] 18 was determined in terms of partition coefficients (logP oct). The logP oct of [^125I] 18 was found at 2.70 and the logP oct values of other dibenzothiazole derivatives were then estimated based on coefficients determined by Hansch and Leo (A substituent Constants for Correlation Analysis in Chemistry and Biology (1979) 1st ed.).

[3] = Brain uptake in normal mice after iv injection; assay type: in vivo, mice (Swiss-Webster); conditions: for Brain uptake in mice, 2 min. / Brain uptake in mice, 30 min. / Brain uptake in mice, 60 min.: n = 3, iv tail vein, 0.185 MBq; for Brain uptake in mice, 2 min.: 2 min postinjection; for Brain uptake in mice, 30 min.: 30 min postinjection; for Brain uptake in mice, 60 min.: 60 min postinjection
Procedure: The radiolabeled ligand [^125I] 18 eluted from C-18 Sep-Pak™ plus cartridge was dissolved in a mixture consisting of saline (2 ml, 9 mg/ml), ethylene glycol (2 ml), ethanol (0.7 ml), and HCl (0.3 ml, […]). Under anesthesia, 0.1 ml of the above solution containing 0.185 MBq of radioactive tracer was administered to the mice through a tail vein injection (Swiss-Webster, n=3, 2 months old). The mice were then sacrificed by a heart puncture at 2, 30, and 60 min postinjection. The brain was rapidly removed, weighed, and counted. The uptake of brain was expressed as percentage of injection dose per gram.
For potential in vivo imaging studies, we radiolabeled compound […] with ^125I for brain uptake studies. Following a single iv injection of [^125I] 18 ([…], 0.185 MBq), the brain permeability was evaluated in normal mice. The brain radioactivity concentration of [^125I] 18 was determined at 2, 30, and 60 min postinjection. […] The initial brain uptake was 3.71±0.63% ID/g at 2 min postinjection, a level that is considered for potential clinical imaging studies. The brain radioactivity concentration decreased sharply to 0.78±0.14% ID/g at 30 min and 0.43±0.12% ID/g at 60 min, with a 2-to-30 min ratio of 5. […] 18 was just as low as it rapidly clears from the normal mouse brain in the absence of amyloid deposits.

[4] = Storage stability of the radioligand; assay type: physicochemical
Procedure: 20-30% after HPLC purification. [^125I] 18 was obtained with a radiochemical purity over 98% and a specific activity near the theoretical limit (80 TBq/mmol) based on the no-carrier added sodium [^125I] iodide. The radiochemical identity of [^125I] 18 was verified by co-elution with the non-radioactive cold standard 18 on HPLC profiles. [^125I] 18 was stable enough to be kept for up to 8 h at room temperature and for up to 2 months in the refrigerator.

Chain of β-amyloid (AD brain homogenates) (P05067 672-711 limits assumed): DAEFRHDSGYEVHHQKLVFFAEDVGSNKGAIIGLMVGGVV

SMILES: Nc1ccc(-c2nc3ccc(-c4nc5ccccc5s4)cc3s2)cc1 [Compound 10]
- Ki [1]: 6.8 to 36 nM

SMILES: Nc1ccc(-c2nc3ccc(-c4nc5ccc(Cl)cc5s4)cc3s2)cc1 [Compound 11]
- Ki [1]: 6.8 to 36 nM

SMILES: Nc1ccc(-c2nc3ccc(-c4nc5ccc(F)cc5s4)cc3s2)cc1 [Compound 12]
- Ki [1]: 6.8 to 36 nM

SMILES: COc1ccc2nc(-c3ccc4nc(-c5ccc(N)cc5)sc4c3)sc2c1 [Compound 13]
- Ki [1]: 6.8 to 36 nM

SMILES: CNc1ccc(-c2nc3ccc(-c4nc5ccccc5s4)cc3s2)cc1 [Compound 14]
- Ki [1]: 6.8 to 36 nM

SMILES: CNc1ccc(-c2nc3ccc(-c4nc5ccc(Cl)cc5s4)cc3s2)cc1 [Compound 15]
- Ki [1]: 6.8 to 36 nM

The remaining lines, values ahead:

- Ki [1]: 6.8 to 36 nM
SMILES: CNc1ccc(-c2nc3ccc(-c4nc5ccc(F)cc5s4)cc3s2)cc1 [Compound 16, [4-(6-fluoro-[2,60]dibenzothiazolyl-20-yl)-phenyl]-methylamine]

- Ki [1]: 6.8 to 36 nM
SMILES: CN(C)c1ccc(-c2nc3ccc(-c4nc5ccc(F)cc5s4)cc3s2)cc1 [Compound 17, [4-(6-fluoro-[2,60]dibenzothiazolyl-20-yl)-phenyl]-dimethylamine]

- Ki [1]: 6.8 to 36 nM
SMILES: Nc1ccc(-c2nc3ccc(-c4nc5ccccc5s4)cc3s2)cc1I [Compound 18, 4-[2,6′]dibenzothiazolyl-2′-yl-2-iodo-phenylamine]

- logP [2]: 2.7
- 2-to-30 min ratio of brain radioactivity concentration ([3]; iv): 5
- Brain uptake in mice, 2 min. [3]: 3.71 ± 0.63 % ID/g
- Brain uptake in mice, 2 min. ([3]; listed as [^125I] 18): 3.71±0.63 % ID/g
- Brain uptake in mice, 30 min. [3]: 0.78 ± 0.14 % ID/g
- Brain uptake in mice, 30 min. ([3]; listed as [^125I] 18): 0.78±0.14 % ID/g
- Brain uptake in mice, 60 min. [3]: 0.43 ± 0.12 % ID/g
- Brain uptake in mice, 60 min. ([3]; listed as [^125I] 18): 0.43±0.12 % ID/g
- Stability, time it can be kept ([4]; in the refrigerator): up to 2 months
- Stability, time it can be kept ([4]; room temperature): up to 8 h
SMILES: Nc1ccc(-c2nc3ccc(-c4nc5ccccc5s4)cc3s2)cc1[125I] [[^125I]18, 4-[2,6′]dibenzothiazolyl-2′-yl-2-^125I-phenylamine]
